Test results: PubChem BioAssay (NCI)
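GI50 marks 50% less growth. Definition used: TGI = concentration required for complete inhibition of growth.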

Key:
Assay in all cases: growth of human tumour cells (NCI), 384-well format
[1] = system: ACHN renal
[2] = system: HCT-15 colon
[3] = system: RPMI-8226 leukemia
[4] = system: RXF 393 renal
[5] = system: UO-31 renal
[6] = system: KM12 colon
[7] = system: DU-145 prostate
[8] = system: OVCAR-8 ovarian
[9] = system: HCT-116 colon
[10] = system: MALME-3M melanoma
[11] = system: HL-60(TB) leukemia
[12] = system: A498 renal
[13] = system: UACC-257 melanoma
[14] = system: SN12C renal
[15] = system: SF-539 CNS
[16] = system: LOX IMVI melanoma
[17] = system: SK-MEL-5 melanoma
[18] = system: HS 578T breast
[19] = system: NCI-H226 lung
[20] = system: NCI/ADR-RES ovarian
[21] = system: HCC-2998 colon
[22] = system: M14 melanoma
[23] = system: OVCAR-3 ovarian
[24] = system: OVCAR-4 ovarian
[25] = system: NCI-H522 lung
[26] = system: NCI-H23 lung
[27] = system: MDA-MB-231 breast
[28] = system: SK-MEL-2 melanoma
[29] = system: NCI-H322M lung
[30] = system: SF-295 CNS
[31] = system: NCI-H460 NSCLC
[32] = system: UACC-62 melanoma
[33] = system: SK-OV-3 ovarian
[34] = system: A549 NSCLC
[35] = system: HOP-92 NSCLC
[36] = system: SNB-75 CNS
[37] = system: EKVX NSCLC
[38] = system: HT29 colon
[39] = system: U251 glioblastoma
[40] = system: T-47D breast
[41] = system: MDA-MB-468 breast
[42] = system: OVCAR-5 ovarian
[43] = system: HOP-62 NSCLC
[44] = system: COLO 205 colon
[45] = system: 786-0 renal
[46] = system: CAKI-1 renal
[47] = system: MCF7 breast
[48] = system: BT-549 breast
[49] = system: PC-3 prostate
[50] = system: SNB-19 CNS
[51] = system: SK-MEL-28 melanoma
[52] = system: MDA-MB-435 melanoma
[53] = system: TK-10 renal
[54] = system: SW-620 colon
[55] = system: K-562 leukemia
[56] = system: IGROV1 ovarian
[57] = system: SF-268 CNS

## CC[C@@]1(O)C(=O)OCc2c1cc1n(c2=O)Cc2cc3c(CN(C)C)c(O)ccc3nc2-1
[1]
  GI50: 20.4 nM
  TGI: 47 nM
[2]
  GI50: 50.7 nM
  TGI: 1130 nM
[3]
  GI50: 28.6 nM
  TGI: 80.9 nM
[4]
  GI50: 48.3 nM
  TGI: 143 nM
[5]
  GI50: 41.6 nM
  TGI: 168 nM
[6]
  GI50: 117 nM
  TGI: 673 nM
[7]
  TGI: 37.4 nM
[8]
  GI50: 17.1 nM
  TGI: 180 nM
[9]
  TGI: 222 nM
[10]
  GI50: 130 nM
  TGI: 996 nM
[11]
  GI50: < 11.3 nM
  TGI: 23.9 nM
[12]
  GI50: 40.1 nM
  TGI: 255 nM
[13]
  GI50: 154 nM
  TGI: 1540 nM
[14]
  GI50: 22 nM
  TGI: 75.3 nM
[15]
  GI50: 16.7 nM
  TGI: 42.6 nM
[16]
  GI50: 11.4 nM
  TGI: 142 nM
[17]
  GI50: 23.6 nM
  TGI: 69.1 nM
[18]
  GI50: < 39.9 nM
  TGI: 715 nM
[19]
  GI50: 19.9 nM
  TGI: 122 nM
[20]
  GI50: 82 nM
  TGI: 326 nM
[21]
  GI50: 118 nM
  TGI: 311 nM
[22]
  GI50: 20.6 nM
  TGI: 64.7 nM
[23]
  GI50: 53.3 nM
  TGI: 282 nM
[24]
  GI50: 469 nM
  TGI: 1700 nM
[25]
  GI50: 19.8 nM
  TGI: 236 nM
[26]
  GI50: 18.8 nM
  TGI: 56.5 nM
[27]
  GI50: 182 nM
  TGI: 781 nM
[28]
  GI50: 219 nM
  TGI: 529 nM
[29]
  GI50: 143 nM
  TGI: 451 nM
[30]
  GI50: < 13.1 nM
  TGI: 26.5 nM
[31]
  GI50: 19.8 nM
  TGI: 100 nM
[32]
  GI50: 16 nM
  TGI: 63.2 nM
[33]
  GI50: 31.6 nM
  TGI: 129 nM
[34]
  GI50: 50.1 nM
  TGI: 1220 nM
[35]
  GI50: 32.4 nM
  TGI: 266 nM
[36]
  GI50: 25.2 nM
  TGI: 60 nM
[37]
  GI50: 366 nM
  TGI: 1860 nM
[38]
  GI50: 49.6 nM
  TGI: 200 nM
[39]
  GI50: < 13 nM
  TGI: 58.1 nM
[40]
  GI50: 21.8 nM
  TGI: 790 nM
[41]
  GI50: 10.2 nM
  TGI: < 16.5 nM
[42]
  GI50: 147 nM
  TGI: 482 nM
[43]
  TGI: 17.5 nM
[44]
  TGI: 800 nM
[45]
  GI50: 18.2 nM
  TGI: 63.1 nM
[46]
  GI50: 22.7 nM
  TGI: 247 nM
[47]
  GI50: < 15.7 nM
  TGI: 3480 nM
[48]
  GI50: < 15.6 nM
  TGI: 71.5 nM
[49]
  GI50: 385 nM
  TGI: > 36600 nM
[50]
  GI50: 24.5 nM
  TGI: 228 nM
[51]
  GI50: 72.1 nM
  TGI: 1290 nM
[52]
  GI50: 181 nM
  TGI: 619 nM
[53]
  GI50: 296 nM
  TGI: 3130 nM
[54]
  GI50: < 16.6 nM
  TGI: 637 nM
[55]
  GI50: 15.9 nM
  TGI: 253 nM
[56]
  GI50: 66.4 nM
  TGI: 749 nM
[57]
  TGI: 26 nM
